Data as given in US20240368163A1, “COMPOUNDS AND METHODS FOR MODULATING SPLICING” (REMIX THERAPEUTICS INC., priority 2021, published 2024).
Where two headings read alike, the source gives them in different places.

Experiments:
Assay type in all cases: cell-based, human
[1] = tested on: MYB; assay: Splicing RT-qPCR assay, MYB mRNA canonical junction (CJ) and alternative junction (AJ); details: Homo sapiens; for AC50: increase in AJ mRNA
Protocol: (§1) Compounds described herein were used to modulate RNA transcript abundance in cells. The expression of a target mRNA was measured by detecting the formation of an exon-exon junction in the canonical transcript (CJ). A compound mediated exon-inclusion event was detected by observing an increase in formation of a new junction with an alternative exon (AJ). Real-time qPCR assays were used to detect these splicing switches and interrogate the potency of various compounds towards different target genes. A high-throughput real time quantitative PCR (RT-qPCR) assay was developed to measure these two isoforms of the mRNA (CJ and AJ) for exemplary genes, such as HTT, SMN2, and MYB, together with a control housekeeping gene, GAPDH or GUSB or PPIA, used for normalization. Briefly, the A673 or K562 cell line was treated with various compounds described herein (e.g., compounds of Formula (I)). After treatment, the levels of the HTT, MYB, or SMN2 mRNA targets were determined from each sample of cell lysate by cDNA synthesis followed by qPCR.
(§2) The A673 cell line was cultured in DMEM with 10% FBS. Cells were diluted with full growth media and plated in a 96-well plate (15,000 cells in 100 ul media per well). The plate was incubated at 37° C. with 5% CO2 for 24 hours to allow cells to adhere. An 11-point 3-fold serial dilution of the compounds was made in DMSO then diluted in media in an intermediate plate. Compounds were transferred from the intermediate plate to the cell plate with the top dose at a final concentration of 10 uM in the well. Final DMSO concentration was kept at or below 0.25%. The cell plate was returned to the incubator at 37° C. with 5% CO2 for an additional 24 hours.
(§3) The K562 cell line was cultured in IMDM with 10% FBS. For K562, cells were diluted with full growth media and plated in either a 96-well plate (50,000 cells in 50 uL media per well) or a 384-well plate (8,000-40,000 cells in 45 uL media per well). An 11-point 3-fold serial dilution of the compounds were made in DMSO then diluted in media in an intermediate plate. Compound was transferred from the intermediate plate to the cell plate with the top dose at a final concentration of 10 uM in the well. Final DMSO concentration was kept at or below 0.25%. Final volume was 100 uL for 96-well plate and 50 uL for 384-well plate. The cell plate was then placed in an incubator at 37° C. with 5% CO2 for 24 hours.
(§4) The cells were then gently washed with 50 uL-100 uL cold PBS before proceeding to addition of lysis buffer. 30 uL-50 μL of room temperature lysis buffer with DNAse I (and optionally RNAsin) was added to each well. Cells were shaken/mixed thoroughly at room temperature for 5-10 minutes for lysis to take place and then 3 uL-5 μL of room temperature stop solution was added and wells were shaken/mixed again. After 2-5 minutes, the cell lysate plate was transferred to ice for RT-qPCR reaction setup. The lysates could also be frozen at −80° C. for later use.
(§5) In some cases, a direct lysis buffer was used. An appropriate volume of 3× lysis buffer (10 mM Tris, 150 mM NaCl, 1.5%-2.5% Igepal and 0.1-1 U/uL RNAsin, pH 7.4) was directly added to either K562 or A673 cells in media and mixed by pipetting 3 times. The plates were then incubated at room temperature with shaking/rocking for 20-50 minutes to allow for lysis to take place. After this time, the cell lysate plate was transferred to ice to set up for the RT-qPCR reactions. The lysates could also be frozen at −80° C. for later use.
(§6) To set up 10 uL RT-qPCR reactions, cell lysates were transferred to 384-well qPCR plates containing the master mix according to the table below. The plates were sealed, gently vortexed, and spun down before the run. The volumes were adjusted accordingly in some instances where the reaction was carried in 20 μL. The table below summarizes the components of the RT-qPCR reactions:
(§7) The RT-qPCR reaction was performed using a QuantStudio (ThermoFisher) under the following fast cycling conditions. […]

[2] = tested on: HTT; assay: Splicing RT-qPCR assay, HTT mRNA canonical junction (CJ) and alternative junction (AJ); details: Homo sapiens; for AC50: increase in AJ mRNA
Protocol: as §1, §2, §3, §4, §5, §6, §7

[3] = tested on: HTT; assay: HiBiT protein abundance assay, HTT; details: Homo sapiens, K562, 24 h, modified K562 cells
Protocol: (§8) Compounds described herein were used to screen for effects on quantitative protein abundance using a HiBit assay system (Promega). Quantitative protein abundance was determined by measuring the protein levels of HiBit-tagged protein targets expressed in cell culture via luminescence using the Nano-Glo HiBiT Lytic Detection System, which uses a split complementation assay format to reconstitute NanoBiT enzyme to generate a luminescent signal. A protein abundance assay was developed such that endogenous protein targets could be modified with the HiBiT peptide tag and their abundance could be assessed after compound treatment. Briefly, K562 cell lines containing a HiBiT-modification were treated with various compounds described herein (e.g., compounds of Formulas (I), (II), or (III)). After treatment for 24 hours, the protein abundance of a specific target was determined by measuring luminescence.
(§9) Cells were maintained in IMIDM with 10% FBS. Before the assay, cells were diluted with […] growth media (IMIDM+[…] media) and were seeded in a 384-well plate at a density of 10000 cells/well (for each cell line listed in Table 12). Each compound was prepared as a 10-point 3-fold serial dilution in DMSO with the top dose at a final concentration of 10 μM in the well. Unmodified K562 cells were added at the previously specified density with DMSO to serve as an assay baseline and positive control (PC) and DMSO only with the respective modified cell lines was added to the negative control (NC) columns. Final DMSO concentration was kept at or below 0.25%. Treated cell plates were placed in an incubator at 37° C. with 5% CO2 for 24 hours. After 24 hours, 25 μL of Complete HiBit Lytic reagent was added to each well at room temperature (e.g. one plate requiring 10 mL Lytic Buffer, 100 μL LgBiT Protein, 200 μL Lytic Substrate), shaken for 5 minutes at 600 RPM, then left to sit for 10 minutes for signal to stabilize before reading on a Spark Cyto plate reader (Tecan) with a 500 ms measurement time.
(§10) To determine compound effects on protein abundance of each target in Table 12, the percent response for each respective cell line was calculated at each compound concentration as follows:
(§11) For the normalized response at each concentration, a four-parameter logistical regression was fit to the data and the response was interpolated at the 50% value to determine a concentration for protein abundance at 50% (IC50) the untreated control.

[4] = tested on: MYB; assay: HiBiT protein abundance assay, MYB; details: Homo sapiens, K562, 24 h, modified K562 cells
Protocol: as §8, §9, §10, §11

[5] = tested on: Target C; assay: HiBiT protein abundance assay, Target C; details: Homo sapiens, K562, 24 h, modified K562 cells
Protocol: • Promega Nano-Glo HiBiT Lytic Detection System (cat #N3030) • Coming 384-well TC-treated microplates (cat #3570) • Synthego Engineered Cells Knock-In Clones
as §9, §10, §11

[6] = tested on: Target C; assay: Splicing RT-qPCR panel, Target C canonical junction (CJ) mRNA; details: Homo sapiens, read-out: Target C IC50 (decrease in CJ mRNA levels)
Protocol: as §1, §2, §3, §4, §5, §6, §7

[7] = tested on: SMN2; assay: Splicing RT-qPCR panel, SMN2 canonical junction (CJ) mRNA; details: Homo sapiens, read-out: SMN2 IC50 (decrease in CJ mRNA levels)
Protocol: as §1, §2, §3, §4, §5, §6, §7

[8] = 24 h, decrease in CJ mRNA, A673 or K562 cells, 24 hours treatment, RT-qPCR, read-out: MYB CJ IC50
[9] = 24 h, A673 or K562 cells, 24 hours treatment, RT-qPCR
[10] = RT-qPCR panel, canonical junction mRNA, compound concentration having 50% response in CJ decrease, read-out: MYB IC50 (decrease in CJ mRNA levels)
[11] = RT-qPCR panel, canonical junction mRNA, compound concentration having 50% response in CJ decrease
[12] = 24 h, decrease in CJ mRNA, A673 or K562 cells, 24 hours treatment, RT-qPCR, read-out: HTT CJ IC50
[13] = RT-qPCR panel, canonical junction mRNA, compound concentration having 50% response in CJ decrease, read-out: HTT IC50 (decrease in CJ mRNA levels)
[14] = gene panel, CJ qPCR, protocol of Example 142, read-out: MYB IC50 (decrease in CJ mRNA levels)
[15] = gene panel, CJ qPCR, protocol of Example 142

Structure (SMILES)	IC50 [1, 8]	AC50 [1, 9]	IC50 [1, 10]	AC50 [2, 9]	IC50 ([3]; Table 13A)	IC50 ([4]; Table 13A)	IC50 ([5]; Table 13A)	IC50 [6, 11]	IC50 [2, 12]	IC50 [2, 13]	IC50 [7, 11]	IC50 [1, 14]	IC50 ([3]; Table 13B)	IC50 ([4]; Table 13B)	IC50 ([5]; Table 13B)	IC50 [6, 15]	IC50 ([2]; gene panel, CJ qPCR, protocol of Example 142, read-out: HTT IC50 (decrease in CJ mRNA levels))	IC50 [7, 15]
C[C@H]1C[C@@H](N(C)c2ccc(-c3ccc(-n4cccn4)c4cc[nH]c34)nn2)CCN1 [Compound 111]	1 to 10 µM	> 10 µM	1 to 10 µM	> 10 µM	1 to 10 µM	1 to 10 µM	1 to 10 µM	> 10 µM	–	–	–	–	–	–	–	–	–	–
CN(c1ccc(-c2ccc(-n3cccn3)c3cc[nH]c23)nn1)[C@@H]1C[C@H]2CC[C@@H](C1)N2 [Compound 113]	> 10 µM	> 10 µM	> 10 µM	–	1 to 10 µM	1 to 10 µM	1 to 10 µM	–	–	–	–	–	–	–	–	–	–	–
C[C@@H]1C[C@H](N(C)c2ccc(-c3ccc(-c4cn[nH]c4)c4nn[nH]c34)nn2)CCN1 [Compound 115]	> 10 µM	> 10 µM	> 10 µM	–	> 10 µM	> 10 µM	> 10 µM	–	–	–	–	–	–	–	–	–	–	–
C[C@@H]1C[C@H](N(C)c2ccc(-c3ccc(-n4cccn4)c4nn[nH]c34)nn2)CCN1 [Compound 117]	1 to 10 µM	1 to 10 µM	1 to 10 µM	1 to 10 µM	1 to 10 µM	1 to 10 µM	1 to 10 µM	1 to 10 µM	–	–	–	–	–	–	–	–	–	–
CN(c1ccc(-c2ccc(-c3cn[nH]c3)c3nn[nH]c23)nn1)[C@@H]1C[C@H]2CC[C@@H](C1)N2 [Compound 118]	> 10 µM	1 to 10 µM	> 10 µM	> 10 µM	1 to 10 µM	1 to 10 µM	1 to 10 µM	1 to 10 µM	–	–	–	–	–	–	–	–	–	–
C[C@@H]1C[C@H](N(C)c2ccc(-c3ccc(-c4cn[nH]c4)c4c3NC(=O)C4)nn2)CCN1 [Compound 121]	> 10 µM	> 10 µM	> 10 µM	–	> 10 µM	> 10 µM	> 10 µM	–	–	–	–	–	–	–	–	–	–	–
CN(c1ccc(-c2ccc(-c3cn[nH]c3)c3ccsc23)nn1)C1CC(C)(C)NC(C)(C)C1 [Compound 131]	> 10 µM	> 10 µM	> 10 µM	> 10 µM	–	–	–	–	1 to 10 µM	1 to 10 µM	0.1 to 1 µM	–	–	–	–	–	–	–
CN(c1ccc(-c2ccc(-n3cccn3)c3cn[nH]c23)nn1)C1CC(C)(C)NC(C)(C)C1 [Compound 150]	0.1 to 1 µM	0.1 to 1 µM	0.1 to 1 µM	1 to 10 µM	–	–	–	–	0.1 to 1 µM	0.1 to 1 µM	0.1 to 1 µM	–	–	–	–	–	–	–
C[C@@H]1C[C@H](N(C)c2ccc(-c3ccc(-c4cn[nH]c4)c(=O)[nH]3)nn2)CCN1 [Compound 901]	–	–	–	–	–	–	–	–	–	–	–	> 10 µM	> 10 µM	> 10 µM	> 10 µM	–	–	–
C[C@H]1C[C@@H](N(C)c2ccc(-c3ccc(-n4cccn4)c(=O)[nH]3)nn2)CCN1 [Compound 903]	–	–	–	–	–	–	–	–	–	–	–	> 10 µM	> 10 µM	> 10 µM	> 10 µM	> 10 µM	–	–
COc1nc(-c2ccc(N(C)[C@@H]3CCN[C@H](C)C3)nn2)ccc1-c1cn[nH]c1 [Compound 909]	–	–	–	–	–	–	–	–	–	–	–	1 to 10 µM	1 to 10 µM	1 to 10 µM	1 to 10 µM	–	1 to 10 µM	0.1 to 1 µM
